Experimental data published in patent publication US11382892B2, “Method for administration” (Hoffmann-La Roche Inc., priority 2012, dated 2022).

How the values were obtained:
[1] = Toxicity summary (body weight, mortality) in MOLM-13 xenograft study; format: in vivo; conditions: MOLM-13 study
Excerpt: In the examples below, weight loss was graphically represented as percent change in mean group body weight, using the formula: ((W−W0)/W0)×100, where ‘W’ represents mean body weight of the treated group at a particular day, and ‘W0’ represents mean body weight of the same treated group at initiation of treatment.
(§1) Female SCID:beige mice (10/group), obtained from Charles River Laboratories (Wilmington, Del.) were utilized when they were approximately 8-10 weeks of age and weighed 21-23 g. The health of the mice was assessed daily by gross observation and analyses of blood samples taken from sentinel animals housed on shared shelf racks. All animals were allowed to acclimate and recover from any shipping-related stress for a minimum of 72 hours prior to experimental use. Autoclaved water and irradiated food (5058-ms Pico Lab mouse chow, Purina Mills, Richmond, Ind.) were provided ad libitum, and the animals were maintained on a 12 hour light and dark cycle. Cages, bedding and water bottles were autoclaved before use and changed weekly. All animal experiments were conducted in accordance with the Guide for the Care and Use of Laboratory Animals, local regulations, and protocols approved by the Roche Animal Care and Use Committee in an AAALAC accredited facility.
Treatment duration was initiated on day 3 and was for 2 weeks. Animal body weights were measured three times per week and animals were monitored for clinical signs daily.

[2] = test system: human osteosarcoma cancer xenograft model SJSA1; assay: Antitumor activity (tumor volume, TGI, regression) in SJSA1 xenograft; format: in vivo, mice; conditions: for Full Regression / Partial Regression: 10 animals per group
Excerpt: Efficacy data was graphically represented as the mean tumor volume*standard error of the mean (SEM). In addition, tumor volumes of treated groups were presented as percentages of tumor volumes of the control groups (% T/C), using the formula: 100×((T−T0)/(C−C0)), where T represented mean tumor volume of a treated group on a specific day during the experiment, T0 represented mean tumor volume of the same […] group on the first day of treatment; C represented mean tumor volume of a control group on the specific day during the experiment, and C0 represented mean tumor volume of the same […] group on the first day of treatment.
Tumor volume (in cubic millimeters) was calculated using the ellipsoid formula: (D×(d^2))/2, where “D” represents the large diameter of the tumor and “d” represents the small diameter. In some cases, tumor regression and/or percent change in tumor volume was calculated using the formula: ((T−T0)/T0)×100, where ‘T’ represents mean tumor volume of the treated group at a particular day, and ‘T0’ represents mean tumor volume of the same treated group at initiation of treatment.
All dose levels are reported as the actual dosage of Compound A rather than including drug plus polymer.
as §1, with “athymic Crl:NU-Foxn1nu” for “SCID:beige”, “10-12” for “8-10”, “23-25” for “21-23”
SJSA cells (ATCC) were maintained in RPMI 1640+10% (v/v) heat-inactivated FBS+i % (v/v) […] L-glutamine. Each mouse received 5×10^6 cells in a 1:1 mixture of phosphate buffered saline and Matrigel in a total volume of 0.2 ml. Cells were implanted subcutaneously in the right flank using a 1 cc syringe and a 26 gauge needle.
Treatment duration was 2-4 weeks. Dates of tumor implant, treatment initiation (study start date), and termination of treatment (study end date) can be found in Table 6 below. The starting tumor volume for this study was about 220 mm^3. Tumor volumes and animal body weights were measured three times per week and animals were monitored for clinical signs daily.

[3] = 100 mg/kg QD po 2 on/12 off x 2
[4] = 200 mg/kg (two 100 mg/kg doses 8 hr apart) 1x/wk po

Structure (SMILES): COc1cc(C(=O)O)ccc1NC(=O)[C@@H]1N[C@@H](CC(C)(C)C)[C@](C#N)(c2ccc(Cl)cc2F)[C@H]1c1cccc(Cl)c1F [Compound A, 4-{[(2R,3S,4R,5S)-4-(4-Chloro-2-fluoro-phenyl)-3-(3-chloro-2-fluoro-phenyl)-4-cyano-5-(2,2-dimethyl-propyl)-pyrrolidine-2-carbonyl]-amino}-3-methoxy-benzoic acid]
- treatment related toxicity ([1]; 80 mg/kg qd × 5 po): absence of treatment related toxicity
- # of animals ≥20% BWL ([1]; 80 mg/kg qdx5 po): 0
- % Change in Body Weight at end of Study Day 17 ([1]; 80 mg/kg qdx5 po): −3.2%
- Maximum % Weight gain ([1]; 80 mg/kg qdx5 po): −3.2%
- Maximum % Weight loss ([1]; 80 mg/kg qdx5 po): −5.5%
- Mortality (reason) ([1]; 80 mg/kg qdx5 po, reason: dosing injury): 1 (dosing
- % Inhibition end of study Day: 32 ([2]; 7.5 mg/kg QD po): 66%
- % T/C End of Study Day: 32 ([2]; 7.5 mg/kg QD po): 34%
- Mean Tumor Volume (mm3) End Study Day: 32 ([2]; 7.5 mg/kg QD po): 18.01 mm3
- Full Regression ([2]; 7.5 mg/kg QD po): 0
- Partial Regression ([2]; 7.5 mg/kg QD po): 0
- % Inhibition end of study Day: 32 ([2]; 15 mg/kg QD po): 79%
- % T/C End of Study Day: 32 ([2]; 15 mg/kg QD po): 21%
- Mean Tumor Volume (mm3) End Study Day: 32 ([2]; 15 mg/kg QD po): 16.42 mm3
- Full Regression ([2]; 15 mg/kg QD po): 0
- Partial Regression ([2]; 15 mg/kg QD po): 0
- % Inhibition end of study Day: 32 ([2]; 20 mg/kg QD po 20 on/8 off): 98%
- % T/C End of Study Day: 32 ([2]; 20 mg/kg QD po 20 on/8 off): 2%
- Mean Tumor Volume (mm3) End Study Day: 32 ([2]; 20 mg/kg QD po 20 on/8 off): 315.19 mm3
- Full Regression ([2]; 20 mg/kg QD po 20 on/8 off): 0
- Partial Regression ([2]; 20 mg/kg QD po 20 on/8 off): 5
- % Inhibition end of study Day: 32 ([2]; 30 mg/kg QD po): regression
- % T/C End of Study Day: 32 ([2]; 30 mg/kg QD po): −1%
- Average % Regression per Group ([2]; 30 mg/kg QD po): 13%
- Mean Tumor Volume (mm3) End Study Day: 32 ([2]; 30 mg/kg QD po): 19.35 mm3
- Full Regression ([2]; 30 mg/kg QD po): 0
- Partial Regression ([2]; 30 mg/kg QD po): 7
- % Inhibition end of study Day: 32 ([2]; 50 mg/kg 1x/wk po): 57%
- % T/C End of Study Day: 32 ([2]; 50 mg/kg 1x/wk po): 43%
- Mean Tumor Volume (mm3) End Study Day: 32 ([2]; 50 mg/kg 1x/wk po): 22.66 mm3
- Full Regression ([2]; 50 mg/kg 1x/wk po): 0
- Partial Regression ([2]; 50 mg/kg 1x/wk po): 0
- % Inhibition end of study Day: 32 ([2]; 50 mg/kg QD po 2 on/5 off x 4): 99%
- % T/C End of Study Day: 32 ([2]; 50 mg/kg QD po 2 on/5 off x 4): 1%
- Mean Tumor Volume (mm3) End Study Day: 32 ([2]; 50 mg/kg QD po 2 on/5 off x 4): 257.29 mm3
- Full Regression ([2]; 50 mg/kg QD po 2 on/5 off x 4): 0
- Partial Regression ([2]; 50 mg/kg QD po 2 on/5 off x 4): 3
- % Inhibition end of study Day: 32 ([2]; 50 mg/kg QD po 4 on/10 off x 2): 99%
- % T/C End of Study Day: 32 ([2]; 50 mg/kg QD po 4 on/10 off x 2): 1%
- Mean Tumor Volume (mm3) End Study Day: 32 ([2]; 50 mg/kg QD po 4 on/10 off x 2): 244.70 mm3
- Full Regression ([2]; 50 mg/kg QD po 4 on/10 off x 2): 0
- Partial Regression ([2]; 50 mg/kg QD po 4 on/10 off x 2): 6
- % Inhibition end of study Day: 32 ([2]; 80 mg/kg QD po 5 on/23 off): regression
- % T/C End of Study Day: 32 ([2]; 80 mg/kg QD po 5 on/23 off): −2%
- Average % Regression per Group ([2]; 80 mg/kg QD po 5 on/23 off): 35%
- Mean Tumor Volume (mm3) End Study Day: 32 ([2]; 80 mg/kg QD po 5 on/23 off): 128.05 mm3
- Full Regression ([2]; 80 mg/kg QD po 5 on/23 off): 2
- Partial Regression ([2]; 80 mg/kg QD po 5 on/23 off): 6
- % Inhibition end of study Day: 32 ([2]; 100 mg/kg 1x/wk po): 94%
- % T/C End of Study Day: 32 ([2]; 100 mg/kg 1x/wk po): 6%
- Mean Tumor Volume (mm3) End Study Day: 32 ([2]; 100 mg/kg 1x/wk po): 474.73 mm3
- Full Regression ([2]; 100 mg/kg 1x/wk po): 0
- Partial Regression ([2]; 100 mg/kg 1x/wk po): 1
- % Inhibition end of study Day: 32 ([2]; 100 mg/kg QD po 2 on/5 off x 4): regression
- % T/C End of Study Day: 32 ([2]; 100 mg/kg QD po 2 on/5 off x 4): −2%
- Average % Regression per Group ([2]; 100 mg/kg QD po 2 on/5 off x 4): 47%
- Mean Tumor Volume (mm3) End Study Day: 32 ([2]; 100 mg/kg QD po 2 on/5 off x 4): 25.68 mm3
- Full Regression ([2]; 100 mg/kg QD po 2 on/5 off x 4): 0
- Partial Regression ([2]; 100 mg/kg QD po 2 on/5 off x 4): 9
- % Inhibition end of study Day: 32 [2, 3]: regression
- % T/C End of Study Day: 32 [2, 3]: 0%
- Average % Regression per Group [2, 3]: 11%
- Mean Tumor Volume (mm3) End Study Day: 32 [2, 3]: 179.88 mm3
- Full Regression [2, 3]: 0
- Partial Regression [2, 3]: 7
- % Inhibition end of study Day: 32 [2, 4]: regression
- % T/C End of Study Day: 32 [2, 4]: −1%
- Average % Regression per Group [2, 4]: 29%
- Mean Tumor Volume (mm3) End Study Day: 32 [2, 4]: 158.95 mm3
- Full Regression [2, 4]: 0
- Partial Regression [2, 4]: 7
- growth inhibitory activity (FIG. 1) ([2]; 5 day on/23 day off treatment schedule): good growth inhibitory activity
